According to PubChem BioAssay (NCI):
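In this assay, cells in 96-well plates receive the compound at five concentrations for 48 hours. Endpoints are linearly interpolated between the surrounding concentrations. The concentration for 50% growth inhibition is given as GI50. TGI denotes the concentration required for complete inhibition of growth.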

How the values were obtained:
Assay in all cases: inhibition of tumour cell growth, NCI panel, 48 h
MCF7 breast = system: MCF7 breast
786-0 renal = system: 786-0 renal
SNB-75 CNS = system: SNB-75 CNS
M14 melanoma = system: M14 melanoma
UO-31 renal = system: UO-31 renal
OVCAR-4 ovarian = system: OVCAR-4 ovarian
RXF 393 renal = system: RXF 393 renal
NCI/ADR-RES ovarian = system: NCI/ADR-RES ovarian
MDA-MB-231 breast = system: MDA-MB-231 breast
NCI-H522 lung = system: NCI-H522 lung
HS 578T breast = system: HS 578T breast
SN12C renal = system: SN12C renal
SW-620 colon = system: SW-620 colon
OVCAR-5 ovarian = system: OVCAR-5 ovarian
HCT-116 colon = system: HCT-116 colon
T-47D breast = system: T-47D breast
HCT-15 colon = system: HCT-15 colon
HL-60(TB) leukemia = system: HL-60(TB) leukemia
MALME-3M melanoma = system: MALME-3M melanoma
HT29 colon = system: HT29 colon
SK-OV-3 ovarian = system: SK-OV-3 ovarian
CCRF-CEM leukemia = system: CCRF-CEM leukemia
PC-3 prostate = system: PC-3 prostate
SK-MEL-5 melanoma = system: SK-MEL-5 melanoma
KM12 colon = system: KM12 colon
UACC-257 melanoma = system: UACC-257 melanoma
SR leukemia = system: SR leukemia
COLO 205 colon = system: COLO 205 colon
MDA-MB-435 = system: MDA-MB-435
LOX IMVI melanoma = system: LOX IMVI melanoma
NCI-H23 lung = system: NCI-H23 lung
SNB-19 CNS = system: SNB-19 CNS
HOP-62 NSCLC = system: HOP-62 NSCLC
ACHN renal = system: ACHN renal
UACC-62 melanoma = system: UACC-62 melanoma
SF-268 CNS = system: SF-268 CNS
CAKI-1 renal = system: CAKI-1 renal
K-562 leukemia = system: K-562 leukemia
MDA-N = system: MDA-N
NCI-H460 lung = system: NCI-H460 lung
U251 CNS = system: U251 CNS
TK-10 renal = system: TK-10 renal
SK-MEL-28 melanoma = system: SK-MEL-28 melanoma
RPMI-8226 leukemia = system: RPMI-8226 leukemia
DU-145 prostate = system: DU-145 prostate
A549 NSCLC = system: A549 NSCLC
OVCAR-3 ovarian = system: OVCAR-3 ovarian
OVCAR-8 ovarian = system: OVCAR-8 ovarian
NCI-H226 lung = system: NCI-H226 lung
EKVX NSCLC = system: EKVX NSCLC
MOLT-4 leukemia = system: MOLT-4 leukemia
SK-MEL-2 melanoma = system: SK-MEL-2 melanoma
BT-549 breast = system: BT-549 breast
SF-539 CNS = system: SF-539 CNS
HOP-92 NSCLC = system: HOP-92 NSCLC
HCC-2998 colon = system: HCC-2998 colon
SF-295 CNS = system: SF-295 CNS
IGROV1 ovarian = system: IGROV1 ovarian
A498 renal = system: A498 renal

Cn1c(=O)sc2cc(C(=S)N3CCOCC3)ccc21
TGI (MCF7 breast): > 100 µM
TGI (786-0 renal): > 100 µM
TGI (SNB-75 CNS): > 95.3 µM
TGI (M14 melanoma): > 100 µM
TGI (UO-31 renal): > 100 µM
TGI (OVCAR-4 ovarian): > 100 µM
TGI (RXF 393 renal): > 100 µM
TGI (NCI/ADR-RES ovarian): > 100 µM
TGI (MDA-MB-231 breast): > 100 µM
TGI (NCI-H522 lung): > 100000 nM
TGI (HS 578T breast): > 100 µM
TGI (SN12C renal): > 100 µM
TGI (SW-620 colon): > 100 µM
TGI (OVCAR-5 ovarian): > 100 µM
TGI (HCT-116 colon): > 100 µM
TGI (T-47D breast): > 100 µM
TGI (HCT-15 colon): > 100 µM
TGI (HL-60(TB) leukemia): > 100 µM
TGI (MALME-3M melanoma): > 100 µM
TGI (HT29 colon): > 100 µM
TGI (SK-OV-3 ovarian): > 100 µM
TGI (CCRF-CEM leukemia): > 100 µM
TGI (PC-3 prostate): > 100 µM
TGI (SK-MEL-5 melanoma): > 100 µM
TGI (KM12 colon): > 100 µM
TGI (UACC-257 melanoma): > 100 µM
TGI (SR leukemia): > 100 µM
TGI (COLO 205 colon): > 100 µM
TGI (MDA-MB-435): > 100 µM
TGI (LOX IMVI melanoma): > 100 µM
TGI (NCI-H23 lung): > 100 µM
TGI (SNB-19 CNS): > 100 µM
TGI (HOP-62 NSCLC): > 100 µM
TGI (ACHN renal): > 100 µM
TGI (UACC-62 melanoma): > 100 µM
TGI (SF-268 CNS): > 100 µM
TGI (CAKI-1 renal): > 100 µM
TGI (K-562 leukemia): > 100 µM
TGI (MDA-N): > 100 µM
TGI (NCI-H460 lung): > 100 µM
TGI (U251 CNS): > 100 µM
TGI (TK-10 renal): > 100 µM
TGI (SK-MEL-28 melanoma): > 100 µM
TGI (RPMI-8226 leukemia): > 100 µM
TGI (DU-145 prostate): > 100 µM
TGI (A549 NSCLC): > 100 µM
TGI (OVCAR-3 ovarian): > 100 µM
TGI (OVCAR-8 ovarian): > 100 µM
TGI (NCI-H226 lung): > 100 µM
TGI (EKVX NSCLC): > 100 µM
TGI (MOLT-4 leukemia): > 100 µM
TGI (SK-MEL-2 melanoma): > 100 µM
TGI (BT-549 breast): > 100000 nM
TGI (SF-539 CNS): > 100 µM
TGI (HOP-92 NSCLC): > 100 µM
TGI (HCC-2998 colon): > 100 µM
TGI (SF-295 CNS): > 100 µM
TGI (IGROV1 ovarian): > 100 µM
TGI (A498 renal): > 100 µM

O=C(O)C1C(C(=O)O)C2(Cl)C(Cl)=C(Cl)C1(Cl)C2(Cl)Cl.[Cd] (configuration not stated)
GI50 (MCF7 breast): 17.3 µM
TGI (MCF7 breast): 35.9 µM
GI50 (786-0 renal): 8.59 µM
TGI (786-0 renal): 22 µM
GI50 (SNB-75 CNS): 10.7 µM
TGI (SNB-75 CNS): 26.4 µM
GI50 (M14 melanoma): 19.2 µM
TGI (M14 melanoma): 38.9 µM
GI50 (UO-31 renal): 20.1 µM
TGI (UO-31 renal): 39.3 µM
GI50 (OVCAR-4 ovarian): 14.9 µM
TGI (OVCAR-4 ovarian): 37.5 µM
GI50 (RXF 393 renal): 13.7 µM
TGI (RXF 393 renal): 30.5 µM
GI50 (NCI/ADR-RES ovarian): 28.6 µM
TGI (NCI/ADR-RES ovarian): 80.3 µM
GI50 (MDA-MB-231 breast): 20.9 µM
TGI (MDA-MB-231 breast): 42.4 µM
GI50 (NCI-H522 lung): 412 nM
TGI (NCI-H522 lung): 1780 nM
GI50 (HS 578T breast): 23.5 µM
TGI (HS 578T breast): > 87 µM
GI50 (SN12C renal): 18.4 µM
TGI (SN12C renal): 36.1 µM
GI50 (SW-620 colon): 23.1 µM
TGI (SW-620 colon): 77.1 µM
GI50 (OVCAR-5 ovarian): 18.2 µM
TGI (OVCAR-5 ovarian): 32.9 µM
GI50 (HCT-116 colon): 17.5 µM
TGI (HCT-116 colon): 32.5 µM
GI50 (T-47D breast): 11.4 µM
TGI (T-47D breast): 28.1 µM
GI50 (HCT-15 colon): 21.4 µM
TGI (HCT-15 colon): 46.6 µM
GI50 (HL-60(TB) leukemia): 28.4 µM
TGI (HL-60(TB) leukemia): 72.1 µM
GI50 (MALME-3M melanoma): 2330 nM
TGI (MALME-3M melanoma): 7.05 µM
GI50 (HT29 colon): 18.4 µM
TGI (HT29 colon): 35.9 µM
GI50 (SK-OV-3 ovarian): 19.6 µM
TGI (SK-OV-3 ovarian): 36.2 µM
GI50 (CCRF-CEM leukemia): 16.5 µM
TGI (CCRF-CEM leukemia): 61.4 µM
GI50 (PC-3 prostate): 15.3 µM
TGI (PC-3 prostate): 29.7 µM
GI50 (SK-MEL-5 melanoma): 1370 nM
TGI (SK-MEL-5 melanoma): 5.63 µM
GI50 (KM12 colon): 16.9 µM
TGI (KM12 colon): 37.5 µM
GI50 (UACC-257 melanoma): 15.5 µM
TGI (UACC-257 melanoma): 30.7 µM
GI50 (SR leukemia): 2800 nM
TGI (SR leukemia): 32.7 µM
GI50 (COLO 205 colon): 20.5 µM
TGI (COLO 205 colon): 38.6 µM
GI50 (MDA-MB-435): 7.61 µM
TGI (MDA-MB-435): 25.2 µM
GI50 (LOX IMVI melanoma): 16.8 µM
TGI (LOX IMVI melanoma): 33.5 µM
GI50 (NCI-H23 lung): 2620 nM
TGI (NCI-H23 lung): 9.17 µM
GI50 (SNB-19 CNS): 40 µM
TGI (SNB-19 CNS): > 100 µM
GI50 (HOP-62 NSCLC): 22.7 µM
TGI (HOP-62 NSCLC): 48.6 µM
GI50 (ACHN renal): 21.3 µM
TGI (ACHN renal): 43.9 µM
GI50 (UACC-62 melanoma): 3.84 µM
TGI (UACC-62 melanoma): 15.4 µM
GI50 (SF-268 CNS): 18.1 µM
TGI (SF-268 CNS): 36.8 µM
GI50 (CAKI-1 renal): 17.8 µM
TGI (CAKI-1 renal): 34.4 µM
GI50 (K-562 leukemia): 16.3 µM
TGI (K-562 leukemia): 51.8 µM
GI50 (MDA-N): 8.5 µM
TGI (MDA-N): 22.6 µM
GI50 (NCI-H460 lung): 3.71 µM
TGI (NCI-H460 lung): 18 µM
GI50 (U251 CNS): 11.2 µM
TGI (U251 CNS): 24.9 µM
GI50 (TK-10 renal): 19 µM
TGI (TK-10 renal): 34.7 µM
GI50 (SK-MEL-28 melanoma): 24.1 µM
TGI (SK-MEL-28 melanoma): 54.7 µM
GI50 (RPMI-8226 leukemia): 6.64 µM
TGI (RPMI-8226 leukemia): 48.4 µM
GI50 (DU-145 prostate): 17.8 µM
TGI (DU-145 prostate): 34.5 µM
GI50 (A549 NSCLC): 18.7 µM
TGI (A549 NSCLC): 39 µM
GI50 (OVCAR-3 ovarian): 7.81 µM
TGI (OVCAR-3 ovarian): 19.7 µM
GI50 (OVCAR-8 ovarian): 28.8 µM
TGI (OVCAR-8 ovarian): > 86.6 µM
GI50 (NCI-H226 lung): 34.9 µM
TGI (NCI-H226 lung): > 66.7 µM
GI50 (EKVX NSCLC): 19.9 µM
TGI (EKVX NSCLC): 35.6 µM
GI50 (MOLT-4 leukemia): 22 µM
TGI (MOLT-4 leukemia): 60.9 µM
GI50 (SK-MEL-2 melanoma): 9.22 µM
TGI (SK-MEL-2 melanoma): 26.8 µM
GI50 (BT-549 breast): 1330 nM
TGI (BT-549 breast): 2740 nM
GI50 (SF-539 CNS): 3.66 µM
TGI (SF-539 CNS): 11.7 µM
GI50 (HOP-92 NSCLC): 19.2 µM
TGI (HOP-92 NSCLC): 34.8 µM
GI50 (HCC-2998 colon): 22.6 µM
TGI (HCC-2998 colon): 47.7 µM
GI50 (SF-295 CNS): > 100 µM
TGI (SF-295 CNS): > 100 µM
GI50 (IGROV1 ovarian): 17.7 µM
TGI (IGROV1 ovarian): 34.2 µM
GI50 (A498 renal): > 100 µM
TGI (A498 renal): > 100 µM
